Some test systems named below: NCI-H226; SK-MEL-5; DU-145; KM12; SK-MEL-2; SW-620; SK-OV-3; Malme-3M; EKVX; MCF7; SK-MEL-28; A549; OVCAR-5; NCI/ADR-RES; K562; PC-3; LOX IMVI; TK-10; M14.
Test in all cases: NCI anticancer screen, dose series, 48 h

Molecules are shown by their SMILES.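 Tested at 5 concentrations; 48 h exposure; 96-well plates; endpoints linearly interpolated, else capped at highest concentration. GI50: concentration for 50% inhibition of growth.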 The source made the active and inactive calls. Cut-off read from the data, not from the text of the source: active = GI50 up to about 1.1 µM and inactive = higher. Some results are limits rather than exact numbers.

Regarding `COC(=O)[C@H](CCSC)NC(=O)N[C@H](C)c1ccccc1`, the GI50 in the experiment on NCI-H226, in the experiment on SK-MEL-5, with DU-145, in the experiment on KM12, with SK-MEL-2 and in the experiment with SW-620 was > 100 µM (inactive) throughout. Also, the GI50 in the experiment with SK-OV-3 was > 100 µM (inactive); with Malme-3M it was 24.9 µM (inactive); in the experiment with EKVX it was > 100 µM (inactive); with MCF7 it was > 100 µM (inactive); with SK-MEL-28 it was > 100 µM (inactive); with A549, > 100 µM (inactive). Besides, the GI50 is > 100 µM (inactive) in the experiment on OVCAR-5; 60.7 µM (inactive) in the experiment on NCI/ADR-RES; > 100 µM (inactive) with K562; > 100 µM (inactive) with PC-3; > 100 µM (inactive) in the experiment on LOX IMVI; > 100 µM (inactive) in the experiment on TK-10. Further, the GI50 with M14 was > 100 µM (inactive).

For `CC1C2(C)OC(=N)C(C#N)(C(c3cccc([N+](=O)[O-])c3)O2)C1(C#N)C#N` (stereo not drawn), the GI50 in the experiment with NCI-H226 was > 100 µM (inactive); with SK-MEL-5, 8 µM (inactive); in the experiment with DU-145, 28.4 µM (inactive); in the experiment on KM12, 44.9 µM (inactive); with SK-MEL-2, 19.9 µM (inactive); in the experiment with SW-620, 12.7 µM (inactive). For the same molecule, the GI50 in the experiment on SK-OV-3 is > 100 µM (inactive); with Malme-3M, 26.2 µM (inactive); with EKVX it was 27.9 µM (inactive); in the experiment with MCF7 it was 22.5 µM (inactive); with SK-MEL-28, 17.7 µM (inactive); in the experiment with A549 it was > 100 µM (inactive). The GI50 in the experiment on OVCAR-5 was 34.7 µM (inactive); in the experiment on NCI/ADR-RES it was 64.9 µM (inactive); with K562 it was 14.6 µM (inactive); in the experiment on PC-3, 30.9 µM (inactive); in the experiment with LOX IMVI, 16.9 µM (inactive); with TK-10, 42.1 µM (inactive). In the experiment with M14, the GI50 was 19.1 µM (inactive).

On to `Sc1nnc(COc2ccc(Cl)cc2)n1-c1ccccc1`, for which the GI50 with NCI-H226, in the experiment on DU-145, with KM12, in the experiment on SK-MEL-2, in the experiment on SW-620 and with SK-OV-3 was > 100 µM (inactive) each time. Besides, the GI50 in the experiment on Malme-3M, in the experiment with EKVX, in the experiment on MCF7, in the experiment with SK-MEL-28, in the experiment with A549 and in the experiment with OVCAR-5 was > 100 µM (inactive) in each case. Further, the GI50 was > 100 µM (inactive) in the experiment on NCI/ADR-RES; 95.7 µM (inactive) with K562; > 100 µM (inactive) in the experiment on PC-3; 49.3 µM (inactive) in the experiment on LOX IMVI; > 100 µM (inactive) with TK-10; > 100 µM (inactive) in the experiment with M14.

`C=C1CCCC(C)(C)C1CCC1(C)CCC(C(C)C(=O)OC)OO1` (stereo not drawn): the GI50 in the experiment on NCI-H226 is 6.18 µM (inactive); in the experiment with SK-MEL-5 it was 5.19 µM (inactive); in the experiment with DU-145, 4.35 µM (inactive); in the experiment with KM12, 0.948 µM (active); in the experiment on SK-MEL-2, 10.8 µM (inactive); in the experiment with SW-620, 7.6 µM (inactive). The GI50 in the experiment with SK-OV-3 is 4.4 µM (inactive); in the experiment on Malme-3M it was > 22.9 µM (inactive); in the experiment with EKVX it was 7.91 µM (inactive); in the experiment with MCF7 it was > 21.5 µM (inactive); in the experiment with SK-MEL-28 it was 20.6 µM (inactive); in the experiment on A549 it was 1.28 µM (inactive). Besides, the GI50 is 6.75 µM (inactive) in the experiment with OVCAR-5; 7.08 µM (inactive) in the experiment on NCI/ADR-RES; 8.89 µM (inactive) with K562; 3.74 µM (inactive) in the experiment with PC-3; 0.471 µM (active) in the experiment on LOX IMVI; 4.28 µM (inactive) in the experiment on TK-10. In addition, the GI50 in the experiment with M14 was 9.66 µM (inactive).

`CC(=O)c1ccc(Nc2c3ccccc3nc3occc23)cc1`: the GI50 was 0.168 µM (active) with NCI-H226; < 0.0219 µM (active) in the experiment on SK-MEL-5; 0.0213 µM (active) in the experiment with DU-145; < 0.01 µM (active) with KM12; 0.0108 µM (active) in the experiment with SK-MEL-2; < 0.01 µM (active) in the experiment with SW-620. Also, the GI50 with SK-OV-3 was 0.0402 µM (active); in the experiment with Malme-3M, < 0.01 µM (active); in the experiment on MCF7 it was < 0.01 µM (active); in the experiment with SK-MEL-28, 0.643 µM (active); in the experiment with A549, 0.124 µM (active); with OVCAR-5, 0.327 µM (active). The GI50 in the experiment on NCI/ADR-RES was < 0.01 µM (active); in the experiment with K562, < 0.01 µM (active); in the experiment on PC-3 it was < 0.01 µM (active); in the experiment with LOX IMVI, < 0.0143 µM (active); in the experiment with TK-10, 0.0371 µM (active); in the experiment on M14, < 0.01 µM (active).

`CC1=C(C)Cc2c(O)ccc(O)c2C1`: the GI50 was 17.4 µM (inactive) with NCI-H226; 14.6 µM (inactive) in the experiment on SK-MEL-5; 20.1 µM (inactive) in the experiment with DU-145; 31.3 µM (inactive) with KM12; 18.3 µM (inactive) in the experiment with SW-620; 76.2 µM (inactive) in the experiment with SK-OV-3. Further, the GI50 in the experiment with Malme-3M was 17.5 µM (inactive); with EKVX, 14.5 µM (inactive); in the experiment with MCF7 it was 19.2 µM (inactive); in the experiment on SK-MEL-28 it was 12 µM (inactive); in the experiment with A549, 18.7 µM (inactive); in the experiment with OVCAR-5 it was 20.7 µM (inactive). In addition, the GI50 with NCI/ADR-RES was 36.5 µM (inactive); in the experiment on K562, 18.8 µM (inactive); with PC-3 it was 15.2 µM (inactive); with LOX IMVI, 19.9 µM (inactive); with TK-10, 20.7 µM (inactive); in the experiment on M14, 16.2 µM (inactive).

Turning to `O=C1N/N=C\c2ccc(cc2)OCc2cccc(n2)COc2ccc(cc2)/C=N\NC1=O`, the GI50 in the experiment on NCI-H226, in the experiment on DU-145, with KM12, in the experiment on SK-MEL-2, with SW-620 and in the experiment on SK-OV-3 was > 25 µM (inactive) each time. In addition, the GI50 in the experiment on Malme-3M, with EKVX, with MCF7, in the experiment on SK-MEL-28, in the experiment with A549 and in the experiment with OVCAR-5 was > 25 µM (inactive) in each case. In addition, the GI50 in the experiment with NCI/ADR-RES, in the experiment on K562, in the experiment with PC-3, in the experiment on TK-10 and with M14 was > 25 µM (inactive) in each case.

In the case of `C1=Cc2nccc3cc4c(c(c23)N1)OCO4`, the GI50 in the experiment on NCI-H226 was 11.4 µM (inactive); in the experiment on DU-145, 6.15 µM (inactive); in the experiment on KM12, 6.73 µM (inactive); with SK-MEL-2 it was 13.3 µM (inactive); in the experiment on SW-620, 5.68 µM (inactive); in the experiment on SK-OV-3, 5.92 µM (inactive). Also, the GI50 in the experiment with Malme-3M was 9.23 µM (inactive); in the experiment on EKVX, 9.55 µM (inactive); with MCF7, 2.32 µM (inactive); in the experiment with SK-MEL-28, 24 µM (inactive); in the experiment on A549, 5.3 µM (inactive); in the experiment on OVCAR-5, 10.4 µM (inactive). For the same molecule, the GI50 was 12.2 µM (inactive) with NCI/ADR-RES; 3.17 µM (inactive) in the experiment on K562; 11.6 µM (inactive) with PC-3; 8.61 µM (inactive) in the experiment on LOX IMVI; 14.7 µM (inactive) in the experiment with TK-10; 18.4 µM (inactive) with M14.

With `Oc1ccc2c(c1)-c1c(c3ccccc3n1CCN1CCOCC1)CC2`, the GI50 in the experiment with NCI-H226 was 24.6 µM (inactive); in the experiment on SK-MEL-5 it was 40.6 µM (inactive); in the experiment on DU-145, 46 µM (inactive); in the experiment with KM12 it was 20 µM (inactive); in the experiment with SK-MEL-2, 25 µM (inactive); with SW-620, > 10 µM (inactive). Besides, the GI50 in the experiment with SK-OV-3 is 27.5 µM (inactive); with Malme-3M, 31.3 µM (inactive); in the experiment on EKVX, 53.2 µM (inactive); in the experiment on MCF7, 37.2 µM (inactive); with OVCAR-5, 23.9 µM (inactive); in the experiment on NCI/ADR-RES, 32.7 µM (inactive). The GI50 was > 100 µM (inactive) with K562; 32.2 µM (inactive) in the experiment on PC-3; 39.7 µM (inactive) with LOX IMVI; 28.6 µM (inactive) with TK-10; 27.2 µM (inactive) in the experiment on M14.

For `C=C1c2c(n(S(=O)(=O)c3ccccc3)c3ccccc23)[C@@]2(C(=O)OC)CC3C=CC2N1C3`, the GI50 in the experiment on NCI-H226, in the experiment with DU-145, in the experiment with KM12, in the experiment with SK-MEL-2, in the experiment with SW-620 and in the experiment on SK-OV-3 was > 100 µM (inactive) each time. The GI50 in the experiment on Malme-3M, with EKVX, in the experiment on MCF7, in the experiment on SK-MEL-28, with A549 and in the experiment on OVCAR-5 was > 100 µM (inactive) throughout. In addition, the GI50 in the experiment with NCI/ADR-RES, in the experiment with K562, in the experiment with PC-3, with LOX IMVI, in the experiment on TK-10 and in the experiment on M14 was > 100 µM (inactive) throughout.

Turning to `Cc1cc(Cl)nc(Nc2nc3ccccc3[nH]2)n1`, the GI50 with NCI-H226, in the experiment with SK-MEL-5, in the experiment on DU-145, with SK-MEL-2, with SW-620 and in the experiment with SK-OV-3 was > 100 µM (inactive) in each case. Further, the GI50 in the experiment with Malme-3M, in the experiment with MCF7, with SK-MEL-28, with A549, in the experiment on OVCAR-5 and with NCI/ADR-RES was > 100 µM (inactive) in each case. Besides, the GI50 with K562, with PC-3, in the experiment on LOX IMVI, in the experiment on TK-10 and with M14 was > 100 µM (inactive) throughout.

The values are drawn from ChEMBL document CHEMBL1201862, “PubChem BioAssay data set” (2004).
